Laboratory results taken from ChEMBL document CHEMBL1153224, “Fluorinated piperidine acetic acids as gamma-secretase modulators” (Bioorg Med Chem Lett, 2010).

Experiments:
[1] = Volume of distribution at steady state in rat at 1 mg/kg, iv and 2 mg/kg, po; format: ADME, organism-based; conditions: in vivo, read-out: Vdss
Gamma-secretase [2] = test: Inhibition of gamma secretase in human SHSY5Y cells expressing wild-type APP assessed as inhibition of intracellular amyloid beta-42 by electrochemiluminescent assay; format: cell-based; conditions: sh-sy5y
[3] = (§1) Oral bioavailability in rat at 2 mg/kg; format: ADME, organism-based; conditions: in vivo
[4] = Plasma clearance in rat at 1 mg/kg, iv and 2 mg/kg, po; format: ADME, organism-based
Mus musculus [5] = test: (§2) Drug level in APP-YAC transgenic mouse brain at 10 mg/kg, po after 7 hrs; format: ADME, organism-based; design: dose 10 mg/kg, route oral; conditions: in vivo, 7 h
[6] = Half life in rat at 1 mg/kg, iv and 2 mg/kg, po; format: ADME, organism-based; conditions: in vivo
Mus musculus [7] = test: (§3) Plasma concentration in APP-YAC transgenic mouse at 10 mg/kg, po after 7 hrs; format: ADME, organism-based; design: dose 10 mg/kg, route oral; conditions: in vivo, 7 h
Brain [8] = test: Reduction in amyloid beta 42 level in APP-YAC transgenic mouse brain at 20 mg/kg, po after 7 hrs; format: functional; design: scale not given: the % may be the effect or the level left
Gamma-secretase [9] = test: Inhibition of gamma secretase in human SHSY5Y cells expressing wild-type APP assessed as inhibition of intracellular amyloid beta-40 by electrochemiluminescent assay; format: cell-based; conditions: sh-sy5y
Brain [10] = test: Reduction in amyloid beta 42 level in rat brain after 7 hrs; format: functional, tissue-based
Rattus norvegicus [11] = species on record: Rattus norvegicus; test: Reduction in amyloid beta 42 level in rat after 7 hrs; format: functional, organism-based
Rattus norvegicus [12] = test: as §1; format: ADME, organism-based; conditions: in vivo
Plasma = test: Reduction in amyloid beta 42 level in rat plasma after 7 hrs; format: functional, cell-free
[13] = as §2; format: ADME, organism-based; design: dose 10 mg/kg, route oral; conditions: APP-YAC transgenic, brain, read-out: Drug uptake
[14] = as §3; format: ADME, organism-based; design: dose 10 mg/kg, route oral; conditions: APP-YAC transgenic, plasma
[15] = AUC (0 to 24 hrs) in rat at 250 mg/kg, po after 7 days; format: ADME, organism-based; design: time < 24 hr, dose 250 mg/kg, route oral; conditions: plasma
Rattus norvegicus [16] = test: Toxicity in rat assessed as notch -related activity at 250 mg/kg, after 7 days; format: organism-based; design: dose 250 mg/kg; conditions: in vivo, 168 h

| IC50 (Gamma-secretase [2]) [nM] | IC50 (Gamma-secretase [9]) [nM] | Structure (SMILES) | other results |
| --- | --- | --- | --- |
| > 10000 | > 10000 | CN1CCC(F)(F)[C@H](CC(=O)O)[C@H]1c1ccc(C(F)(F)F)cc1 | – |
| 800 | > 10000 | CC(C)(C)C#CC(CCC(F)(F)F)N1CCC(F)(F)[C@H](CC(=O)O)[C@H]1c1ccc(C(F)(F)F)cc1 (mixture of isomers) | – |
| 600 | > 10000 | CC(C)(C)CCC(CCC(F)(F)F)N1CCC(F)(F)[C@H](CC(=O)O)[C@H]1c1ccc(C(F)(F)F)cc1 (some centres not stated) | EC50 (Brain [10]): 1000 nM; Vd [1]: 1.9 L/kg; IC50 (Rattus norvegicus [11]): Dose-dependent effect; ED50 (Rattus norvegicus [11]; Rattus norvegicus, 7 h): 5 mg/kg; F (Rattus norvegicus [12]): 160%; EC50 (Plasma): 3700 nM; clearance [4]: 3.8 mL/min/kg; concentration at 7 h [13]: 580 nM; half-life [6]: 5.1 h; concentration at 7 h [14]: 1100 nM; Activity (Brain [8]): -84%; AUC at 24 h [15]: 2100 µM·h; Activity (Rattus norvegicus [16]): Non-toxic |
| 1400 | > 10000 | CC(C)(C)CCC(CCC(F)(F)F)N1CCC(F)(F)[C@H](CC(=O)O)[C@H]1c1ccc(C(F)(F)F)cc1 (single isomer, unassigned; enantiomer 1) | – |
| 390 | > 10000 | CC(C)(C)C#CC(CCC(F)(F)F)N1CCC(F)(F)[C@H](CC(=O)O)[C@H]1c1ccc(C(F)(F)F)cc1 (single isomer, unassigned; enantiomer 2) | – |
| 490 | > 10000 | CC(C)(C)CC[C@H](CCC(F)(F)F)N1CC[C@@H](CC(=O)O)C(F)(F)[C@H]1c1ccc(C(F)(F)F)cc1 | – |
| 1500 | > 10000 | CC(C)(C)C#CC(CCC(F)(F)F)N1CCC(F)(F)[C@H](CC(=O)O)[C@H]1c1ccc(C(F)(F)F)cc1 (some centres not stated) | – |
| 640 | > 10000 | C[Si](C)(C)CCC(CCC(F)(F)F)N1CCC(F)(F)[C@H](CC(=O)O)[C@H]1c1ccc(C(F)(F)F)cc1 (single isomer, unassigned; enantiomer 2) | – |
| 710 | > 10000 | CC(C)CC[C@H](c1ccc(C(F)(F)F)cc1)N1CC[C@@H](CC(=O)O)C(F)(F)[C@H]1c1ccc(C(F)(F)F)cc1 | – |
| 880 | > 10000 | CC(C)CCC(CCC(C)C)N1CCC(F)(F)[C@H](CC(=O)O)[C@H]1c1ccc(C(F)(F)F)cc1 | – |

| Structure (SMILES) | IC50 (Gamma-secretase [2]) [nM] | IC50 (Gamma-secretase [9]) [nM] | other results |
| --- | --- | --- | --- |
| C[Si](C)(C)CC[C@H](CCC(F)(F)F)N1CC[C@@H](CC(=O)O)C(F)(F)[C@H]1c1ccc(C(F)(F)F)cc1 | 230 | > 10000 | Vd [1]: 5.1 L/kg; bioavailability [3]: 20%; clearance [4]: 9.1 mL/min/kg; Drug uptake (Mus musculus [5]): Not Active; half-life [6]: 6.4 h; Cp (Mus musculus [7]): Not Active; Activity (Brain [8]): -64% |
